17 molecules from patent US20050282824A1, “Substituted pyrimidines as inhibitors of bacterial type III protein secretion systems” (priority 2004, published 2005) can be followed below.

Common to all, as to assay type: cell-based
In experiment [1] the test system is Type III protein secretion of ExoU by P. aeruginosa PA103. Description: Tertiary assay: Type III-dependent secretion of ExoU by P. aeruginosa PA103. The following applies: Pseudomonas aeruginosa, read-out: ExoU IC50(uM). From the text:
Tertiary assay: inhibition of Type III protein secretion of effectors from a Pseudomonas aeruginosa system. Type III protein secretion is used by P. aeruginosa to secrete several essential virulence determinants. One effector of the type III protein secretion system of P. aeruginosa PA 103 is the virulence determinants ExoU.
The amount of Type III-dependent secretion of ExoU by P. aeruginosa PA103 can be determined in a cell-based assay by quantification of the 73.9 kDa ExoU protein secreted into the extracellular medium. Such quantitation can be achieved by growing strain PA 103 in a deferrated medium in the presence of nitrilotriacetic acid (an inducer of Type III protein secretion in P. aeruginosa) and either in the presence or absence of putative inhibitors. After a prolonged growth period, the cells are sedimented and the supernatants concentrated by ammonium sulfate precipitation. The proteins in the resuspended pellets are separated by electrophoresis on SDS-polyacrylamide gels. After staining gels with Colloidal Blue™, the 73.9 kDa ExoU band is quantitated by scanning through an imager. The effects of inhibitors on the intensity of the ExoU band may be measured relative to that of untreated controls.

Experiment [2] relates to SPI1 type III protein secretion of SipB by S. enterica. As to the kind of experiment: Secondary assay: Type III-dependent protein secretion of the SipB polypeptide by S. enterica. The conditions noted are these: Salmonella enterica, read-out: SipB IC50(uM). Here is the method:
Secondary assay: Type III-dependent protein secretion of the SipB polypeptide by S. enterica. The SipB protein of S. enterica is another effector of the SPI1 type III protein secretion system from S. enterica. In this cell-based procedure, the Type III-dependent secretion of SipB from the bacterial cytoplasm to the extracellular medium was measured through its reactivity with a cognate mouse monoclonal.
Salmonella enterica cells growing either in the presence or in the absence of inhibitors are induced for the production of SipB. Following an established period of growth the cells are sedimented and the amount of SipB present in the supernatant is quantified with a scanning imager following application of immunoblot techniques. Detection may employ an anti-SipB mouse monoclonal antibody (e.g., obtained from Jorge Galan, SUNY at Stony Brook, N.Y.) followed by treatment with commercially available sheep anti-mouse polyclonal antibody conjugated with horseradish peroxidase. Thereafter the membrane is treated with a peroxidase chemiluminescent substrate and exposed to film for an appropriate exposure time. Inhibition may be measured relative to untreated controls.

For experiment [3], the system named is SPI1 type III protein secretion of SopE'-'Bla by Salmonella enterica. As to the kind of experiment: Primary assay: Type III protein secretion of the chimeric SopE'-'Bla polypeptide by Salmonella enterica. The following applies: read-out: SopE IC50(uM). The gist of the method: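 S. enterica grown under SPI1-favouring conditions was induced to express SopE′-′Bla (SopE secretion signal fused to signal-less TEM-1 β-lactamase) and cultured with or without compound for a set time. Secreted reporter was quantified by colorimetric hydrolysis of cell-impermeant nitrocefin added to the cultures.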

The structures appear in SMILES notation.

`O=C(N[C@@H](CSCc1ccccc1)C(=O)O)c1cc(N2CCN(c3ccccc3)CC2)nc(-c2ccc(C(F)(F)F)cc2)n1` [Compound 23, (R)-3-Benzylsulfanyl-2-{[6-(4-phenyl-piperazin-1-yl)-2-(4-trifluoromethylphenyl)-pyrimidine-4-carbonyl]amino}propionic acid]: the half-maximal inhibitory concentration (IC50) was found to be 73 µM in experiment [1], 31.7 µM in experiment [2] and 3.3 µM in experiment [3].
Taken in the same sequence, the figures for `O=C(N[C@@H](CSCc1ccccc1)C(=O)O)c1cc(N2CCN(c3ccccc3)CC2)nc(-c2ccc(Cl)cc2)n1` [Compound 24, (R)-3-Benzylsulfanyl-2-{[2-(4-chlorophenyl)-6-(4-phenyl-piperazin-1-yl)-pyrimidine-4-carbonyl]amino}propionic acid] were 46.9 µM, 39.2 µM and 5.45 µM.
Taken in the same sequence, the figures for `N#Cc1ccc(-c2nc(C(=O)N[C@@H](CSCc3ccccc3)C(=O)O)cc(N3CCN(c4ccccc4)CC3)n2)cc1` [Compound 25, (R)-3-Benzylsulfanyl-2-{[2-(4-cyanophenyl)-6-(4-phenyl-piperazin-1-yl)-pyrimidine-4-carbonyl]amino}propionic acid] were 57.2 µM, 51.9 µM and 6.5 µM.
The matching figures for `O=C(N[C@@H](CSCc1ccccc1)C(=O)O)c1cc(N2CCN(c3ccccc3)CC2)nc(Cl)n1` [Compound 26, (R)-3-Benzylsulfanyl-2-{[2-chloro-6-(4-phenyl-piperazin-1-yl)pyrimidine-4-carbonyl]amino}propionic acid]: greater than 100 µM, 46.8 µM and 50.1 µM.
Take `CC1CCN(c2nc(C(=O)N[C@@H](CSCc3ccccc3)C(=O)O)cc(N3CCN(c4ccccc4)CC3)n2)CC1` [Compound 27, (R)-3-Benzylsulfanyl-2-{[2-(4-methylpiperidin-1-yl)-6-(4-phenyl-piperazin-1-yl)-pyrimidine-4-carbonyl]amino}propionic acid]: the results for the IC50 in experiment [1], in experiment [2] and in experiment [3] were greater than 100 µM, 8.8 µM and 5.3 µM, respectively.
For the molecule `C[C@@H](OCc1ccccc1)[C@H](NC(=O)c1cc(N2CCCCC2)nc(N2CCC(c3ccccc3)CC2)n1)C(=O)O` [Compound 30, (2S,3R)-3-Benzyloxy-2-{[2-(4-phenylpiperidin-1-yl)-6-piperidin-1-yl-pyrimidine-4-carbonyl]amino}butyric acid], the IC50 was greater than 100 µM in experiment [1], 17.9 µM in experiment [2] and 4.6 µM in experiment [3].
Taken in the same sequence, the figures for `O=C(N[C@@H](COCc1ccccc1)C(=O)O)c1cc(-c2ccc(Cl)c(Cl)c2)nc(N2CCN(c3ccccc3)CC2)n1` [Compound 32, (S)-3-Benzyloxy-2-{[6-(3,4-dichlorophenyl)-2-(4-phenyl-piperazin-1-yl)-pyrimidine-4-carbonyl]amino}propionic acid] were 40.7 µM, 5.7 µM and 3.2 µM.
The matching figures for `Cc1cc(C(=O)NC(CSCc2ccccc2)C(=O)O)nc(-c2ccc(-c3ccccc3)cc2)n1` (stereo not drawn) [Compound 35, 3-Benzylsulfanyl-2-[(2-biphenyl-4-yl-6-methyl-pyrimidine-4-carbonyl)-amino]-propionic acid]: greater than 100 µM, 59.2 µM and 17.7 µM.
The matching figures for `Cc1cc(C(=O)N[C@@H](COCc2ccccc2)C(=O)O)nc(-c2ccc(-c3ccccc3)cc2)n1` [Compound 36, (S)-3-Benzyloxy-2-[(2-biphenyl-4-yl-6-methyl-pyrimidine-4-carbonyl)amino]-propionic acid]: greater than 100 µM, 79.6 µM and 32.7 µM.
In the case of `CC1CCN(c2cc(C(=O)N[C@@H](COCc3ccccc3)C(=O)O)nc(-c3ccc(Oc4ccccc4)cc3)n2)CC1` [Compound 38, (S)-3-Benzyloxy-2-{[6-(4-methylpiperidin-1-yl)-2-(4-phenoxyphenyl)pyrimidine-4-carbonyl]amino}propionic acid], the results for the IC50 in experiment [1], in experiment [2] and in experiment [3] were 82.8 µM, 7.1 µM and 1.3 µM, respectively.
Taken in the same sequence, the figures for `CC1CCN(c2cc(C(=O)NC(Cc3ccc(Cl)cc3)C(=O)O)nc(-c3ccc(Oc4ccccc4)cc3)n2)CC1` (stereo not drawn) [Compound 39, 3-(4-Chlorophenyl)-2-{[6-(4-methylpiperidin-1-yl)-2-(4-phenoxyphenyl)-pyrimidine-4-carbonyl]amino}propionic acid] were 74.5 µM, 13.2 µM and 1.5 µM.
The matching figures for `CC1CCN(c2cc(C(=O)N[C@@H](CSCc3ccccc3)C(=O)O)nc(-c3ccc(-c4ccccc4)cc3)n2)CC1` [Compound 40, (R)-3-Benzylsulfanyl-2-{[2-biphenyl-4-yl-6-(4-methylpiperidin-1-yl)pyrimidine-4-carbonyl]amino}propionic acid]: 61.2 µM, 23 µM and 5.1 µM.
Take `CC1CCN(c2cc(C(=O)N[C@@H](COCc3ccccc3)C(=O)O)nc(-c3ccc(-c4ccccc4)cc3)n2)CC1` [Compound 41, (S)-3-Benzyloxy-2-{[2-biphenyl-4-yl-6-(4-methylpiperidin-1-yl)pyrimidine-4-carbonyl]amino}propionic acid]: the results for the IC50 in experiment [1], in experiment [2] and in experiment [3] were 67.4 µM, 28.6 µM and 2.4 µM, respectively.
Taken in the same sequence, the figures for `CC1CCN(c2cc(C(=O)NC(Cc3ccc(Cl)cc3)C(=O)O)nc(-c3ccc(-c4ccccc4)cc3)n2)CC1` (stereo not drawn) [Compound 42, 2-{[2-Biphenyl-4-yl-6-(4-methylpiperidin-1-yl)pyrimidine-4-carbonyl]amino}-3-(4-chlorophenyl)propionic acid] were greater than 100 µM, 22.3 µM and 4.8 µM.
The matching figures for `O=C(NC(Cc1ccc(Cl)cc1)C(=O)O)c1cc(-c2ccc(C(F)(F)F)cc2)nc(N2CCN(c3ccccn3)CC2)n1` (stereo not drawn) [Compound 43, 3-(4-Chlorophenyl)-2-{[2-(4-pyridin-2-yl-piperazin-1-yl)-6-(4-trifluoromethyl-phenyl)pyrimidine-4-carbonyl]amino}propionic acid]: greater than 100 µM, 74.2 µM and 8.1 µM.
Taken in the same sequence, the figures for `CC1CCN(c2nc(C(=O)N[C@@H](COCc3ccccc3)C(=O)O)cc(N3CCN(c4nccc(C(F)(F)F)n4)CC3)n2)CC1` [Compound 47, (S)-3-Benzyloxy-2-({2-(4-methylpiperidin-1-yl)-6-[4-(4-trifluoromethylpyrimidin-2-yl)piperazin-1-yl]pyrimidine-4-carbonyl}amino)propionic acid] were greater than 100 µM, 10.4 µM and 4.5 µM.
For `CC1CCN(c2nc(C(=O)NC(Cc3ccc(Cl)cc3)C(=O)O)cc(N3CCN(c4nccc(C(F)(F)F)n4)CC3)n2)CC1` (stereo not drawn) [Compound 48, 3-(4-Chlorophenyl)-2-({2-(4-methylpiperidin-1-yl)-6-[4-(4-trifluoromethyl-pyrimidin-yl)piperazin-1-yl]pyrimidine-4-carbonyl}amino)propionic acid], the IC50 in experiment [1] was greater than 100 µM; in experiment [2], 40 µM; in experiment [3], 1.3 µM.
